{
  "source": "patent US20170298100A1",
  "about": "“ANTI-VIRAL PEPTIDES” (Cascadia Life Sciences LLC, priority 2014, published 2017)",
  "key": {"MDCK canine kidney cells": {"system": "MDCK canine kidney cells", "details": "for effect on monolayer: compared to cell control wells"}, "[1]": {"system": "herpes simplex virus type 1 strain KOS", "experiment": "plaque inhibition assay of HSV1 strain KOS replication in Vero cells", "type": "cell-based", "details": "for inhibition of plaque number: compared to media-only treated controls"}, "[2]": {"system": "influenza H3N2/Wisconsin/67/2005", "experiment": "plaque assay of influenza H3N2 replication in MDCK cells", "type": "cell-based, influenza virus", "details": "10 μM, control drug"}, "[3]": {"system": "Vero African green monkey kidney cells"}},
  "note": "Like-named read-outs stand apart in the source and are kept apart here.",
  "data": [
    {"compound": "Ac-ADVDVSAVQAKLGALELNQRDAAAETELRV-NH2 [CLS2A]", "values": [
      {"measurement": "cytotoxicity", "setting": "MDCK canine kidney cells; 59.4 μM (second concentration)", "value": "no cytotoxicity"},
      {"measurement": "effect on monolayer", "setting": "MDCK canine kidney cells; 188 μM (highest concentration)", "value": "moderate thinning and more intense staining of the monolayer"}
    ]},
    {"compound": "Nc1nc2c(ncn2COCCO)c(=O)[nH]1", "note": "[acyclovir, reference compound]", "values": [
      {"measurement": "plaque size relative to plaques with 56 μM CLS1N (approx. 0.7 mm)", "setting": "[1]; 5 μM acyclovir control", "value": "approximately the same size"}
    ]},
    {"compound": "CCOC(=O)C1=C[C@@H](OC(CC)CC)[C@H](NC(C)=O)[C@@H](N)C1", "note": "[Oseltamivir]", "values": [
      {"measurement": "inhibition of H3N2 plaques", "setting": "[2]", "value": "completely inhibitory"}
    ]},
    {"compound": "Ac-GDTVGLIDEQNEASKTNGLGAAEAF-NH2 [CLS2G]", "values": [
      {"measurement": "cytotoxicity", "setting": "MDCK canine kidney cells; 74.0 μM (second concentration)", "value": "no cytotoxicity"},
      {"measurement": "effect on monolayer", "setting": "MDCK canine kidney cells; 235 μM (highest concentration)", "value": "moderate thinning and more intense staining of the monolayer"}
    ]},
    {"compound": "Ac-RQYSVTDALEDVSTSPQSTEEVVQSFLISQ-NH2 [CLS1S]", "values": [
      {"measurement": "density of the monolayer", "setting": "[3]; 188 ug/ml dilution", "value": "did not affect the density of the monolayer"},
      {"measurement": "effect on monolayer", "setting": "[3]; highest concentration, compared to control untreated cells", "value": "moderate thinning"}
    ]},
    {"compound": "RQYSVTDALEDVNTSPQSTEEVVQSFLISQ (Artificial anti-viral peptides) [CLS1N]", "values": [
      {"measurement": "plaque size", "setting": "[1]; 5.6 μM (dilution 4)", "value": "wild type size"},
      {"measurement": "inhibition of plaque number", "setting": "[1]; 5.6 μM (dilution 4)", "value": "not significant inhibition of plaque number"},
      {"measurement": "plaque size", "setting": "[1]; 17.6 μM (dilution 3)", "value": "wild type size"},
      {"measurement": "inhibition of plaque number", "setting": "[1]; 17.6 μM (dilution 3)", "value": "not significant inhibition of plaque number"},
      {"measurement": "plaque size (diameter)", "setting": "[1]; 56 μM, untreated plaques approx. 1.5 mm", "value": "approx. 0.7 mm"},
      {"measurement": "plaque number", "setting": "[1]; 177 μM", "value": "reduced in number"},
      {"measurement": "inhibition of virus growth in cells", "setting": "[1]; plaque inhibition assay, Vero cells", "value": "effectively inhibited virus growth"},
      {"measurement": "monolayer appearance", "setting": "[3]; 5.6 μM (dilution 4)", "value": "normal microscopically"},
      {"measurement": "monolayer appearance", "setting": "[3]; 17.6 μM (dilution 3)", "value": "normal microscopically"},
      {"measurement": "cytotoxicity grade (density of the monolayer)", "setting": "[3]; 56 μM", "value": "no cytotoxicity"},
      {"measurement": "effect on monolayer", "setting": "[3]; 177 μM, compared to cell control wells", "value": "moderate thinning and moderately less intense staining of the monolayer"}
    ]}
  ]
}
